# How the values were obtained:
# [1] = biological target: T1, DNA-PK (Homo sapiens, UniProt P78527); test: Standard DNA-PK assay (phosphorylation of p53 peptide substrate); format: biochemical; conditions: purified human DNA-PK, 50 μM ATP, room temperature, read-out: IC50 (inhibition of DNA-PK enzyme activity)
# T1 construct: HeLa S3 cells (ATCC CCL-2.2; Batch F12594) were raised in MEM-Joklik media; endogenous in cells; host or cells: HeLa S3 cells (ATCC CCL-2.2); Endogenous enzyme purified in house: S100-2 fraction, then Q-Sepharose FF, then SP-Sepharose FF, giving fraction IV
# Description: Reactions were carried out at room temperature. Reactions were started by addition of ATP and stopped by application to phosphocellulose paper. Reaction products spotted onto phosphocellulose paper were washed five times with a total volume of at least 250 mL 10% acetic acid or 150 mM phosphoric acid. The paper was air dried and radioactivity was determined in a Beckman LS6000IC scintillation counter.
# [2] = tested on: MDA-MB231 (human breast carcinoma) cells; test: DNA double-strand break repair assay (pulse field gel electrophoresis after irradiation); format: cell-based; conditions: 25 Gy, at concentrations which enhanced radiation induced cell killing
# Description: To further determine the cellular effect of DNA-PK inhibitors, an assay to measure chromosomal discontinuities was employed. Ionizing radiation induces chromosomal DNA double-strand breaks. Following high dose radiation, chromosomes can be extracted from cells and fractionated by pulse field electrophoresis to distinguish chromosomal fragments from intact larger chromosomes. Using this technique, the activity of DNA-PK inhibitors was measured.
# MDA-MB231 (human breast carcinoma) cells were seeded onto T25 flasks with RPMI1640+10% FBS, 2 mM L-glutamine, penicillin G 100 U/ml-streptomycin sulfate 10 μg/ml, 1 mM Na pyruvate. When confluent, media was removed and replaced with media containing DNA-PK inhibitor or vehicle. Cells were incubated at 37° C. for 1 hr in a humidified chamber with 5% CO2. Media then was removed and flasks were filled with ice-cold D-PBS and either: (a) processed immediately; (b) irradiated (25 Gy in a ^137Cs Mark I irradiator at a flux of 335 rad/min) and processed immediately; (c) irradiated and incubated for 2 hr in complete RPMI1640+vehicle at 37° C. (in humidified 5% CO2 atmosphere to allow for DNA repair), or (d) irradiated and incubated for 2 hr in complete RPMI1640+DNA-PK inhibitor compound. […] Chromosomal DNA was visualized with SYBR-Gold (Molecular probes #S-11494) and the fluorescent image quantified on the STORM 860 (Molecular Dynamics).
# [3] = tested on: human colorectal carcinoma cell line, HCT-116; test: Radiation enhancement cellular proliferation assay (3H thymidine incorporation); format: cell-based; conditions: HCT-116 cells, γ-radiation at doses up to 800 rads
# Description: To measure the ability of present DNA-PK inhibitor compounds to enhance the toxic effect of radiation treatment, the human colorectal carcinoma cell line, HCT-116, was incubated with inhibitor compounds at concentrations up to 50 μM and treated with γ-radiation at doses up to 800 rads. Cells were maintained in RPMI 1640 (Gibco) containing 10% […], 1 mM sodium pyruvate, 2 mM L-glutamine, 100 U/mL penicillin, and 100 μg/mL streptomycin at 37° C. with 5% CO2 in a humidified incubator. Cultured cells were trypsinized, counted, and seeded into 96 well plates at a concentration of 1000 cells/well. Cells were incubated with varying concentrations of the inhibitor compounds from 1.8 μM to 50 μM for 10 hr or 5 days, then the media-containing compounds were removed and replaced With fresh media without drug. After five days, ^3H thymidine (1 μCi/well) was added to each well and incubated for an additional 20 hr. The plates were frozen at −70° C. for at least 2 hr and thawed at 37° C. to lyse the cells. DNA was harvested onto glass fiber filters and ^3H thymidine incorporation determined with a Packard Matrix 96 direct beta counter. Compound dependent potentiation of radiation induced cell killing was determined by comparing the effect of radiation alone and radiation plus inhibitor compound.
smiles,measurement,setting,value
"O=c1c2ccccc2n(Cc2ccccc2)c2cc(N3CCOCC3)cc(O)c12 [Example 28, 10-Benzyl-1-hydroxy-3-morpholin-4-yl-10H-acridin-9-one]",IC50,[1],20 nM
same,DNA double-strand break repair,[2],inhibited DNA double-strand break repair
same,concentration that enhanced radiation induced cell killing 2-fold,[3],17.5 µM
